Data on 1 compound can be found in ChEMBL document CHEMBL5728427, “Apoptosis signal-regulating kinase 1 inhibitors and methods of use thereof” (2021).

The target in this experiment is T1, Mitogen-activated protein kinase kinase kinase 5 (Homo sapiens, UniProt Q99683).
T1 sequence (Q99683 whole entry): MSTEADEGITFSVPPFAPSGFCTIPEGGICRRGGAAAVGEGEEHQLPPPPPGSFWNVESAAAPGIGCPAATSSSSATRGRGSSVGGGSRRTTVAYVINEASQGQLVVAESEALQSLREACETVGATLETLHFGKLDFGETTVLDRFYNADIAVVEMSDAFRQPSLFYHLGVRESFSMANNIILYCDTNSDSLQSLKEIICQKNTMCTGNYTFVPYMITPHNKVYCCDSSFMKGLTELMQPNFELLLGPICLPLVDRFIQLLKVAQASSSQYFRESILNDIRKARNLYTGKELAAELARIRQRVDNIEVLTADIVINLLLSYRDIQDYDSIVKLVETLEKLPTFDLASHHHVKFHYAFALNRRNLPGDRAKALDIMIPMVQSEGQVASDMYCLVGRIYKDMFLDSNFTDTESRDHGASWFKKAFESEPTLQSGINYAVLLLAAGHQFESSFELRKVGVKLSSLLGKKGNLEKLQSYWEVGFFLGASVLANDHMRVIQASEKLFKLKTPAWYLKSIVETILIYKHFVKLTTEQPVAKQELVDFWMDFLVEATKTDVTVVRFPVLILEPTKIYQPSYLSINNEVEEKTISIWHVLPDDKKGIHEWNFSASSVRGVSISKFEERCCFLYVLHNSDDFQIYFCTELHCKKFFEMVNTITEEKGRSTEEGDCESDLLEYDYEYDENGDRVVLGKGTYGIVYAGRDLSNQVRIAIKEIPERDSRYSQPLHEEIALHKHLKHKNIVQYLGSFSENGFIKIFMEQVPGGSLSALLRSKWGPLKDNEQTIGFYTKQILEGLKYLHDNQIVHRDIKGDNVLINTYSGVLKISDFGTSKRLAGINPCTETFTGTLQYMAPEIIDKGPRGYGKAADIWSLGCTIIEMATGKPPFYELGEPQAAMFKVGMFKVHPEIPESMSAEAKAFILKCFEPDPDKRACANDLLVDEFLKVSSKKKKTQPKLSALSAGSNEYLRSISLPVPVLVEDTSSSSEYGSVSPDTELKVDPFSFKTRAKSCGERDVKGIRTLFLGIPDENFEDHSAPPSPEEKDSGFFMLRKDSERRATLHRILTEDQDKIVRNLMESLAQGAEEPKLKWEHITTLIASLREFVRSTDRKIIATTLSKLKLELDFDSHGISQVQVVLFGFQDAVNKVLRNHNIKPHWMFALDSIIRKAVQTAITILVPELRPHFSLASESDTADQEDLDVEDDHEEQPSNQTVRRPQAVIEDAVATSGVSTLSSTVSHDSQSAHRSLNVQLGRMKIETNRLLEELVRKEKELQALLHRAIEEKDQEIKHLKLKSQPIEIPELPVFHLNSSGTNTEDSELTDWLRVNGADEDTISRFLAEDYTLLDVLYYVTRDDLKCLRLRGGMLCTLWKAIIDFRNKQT
The experiment is described as follows: HTRF KinEASE Assay: ASK1 was purchased from Thermofisher (Catalogue #PV4011), ATP was purchased from Sigma (Catalogue #A7699), HTRF® KinEASE™ Assay System was obtained from Cisbio (Bedford, Mass.). ½ Area plate was purchased from Perkin Elmer (Catalogue ##6005560). HTRF® KinEASE™-STK is a generic method for measuring serine/threonine kinase activities using a time-resolved fluorescence resonance energy transfer (TR-FRET) immunoassay. The IC50 value for each compound was determined in the presence of compound (various concentration from 0 to 10 μM) and a fixed amount of ATP and peptide substrates. The test compound, 1 uM STK3 peptide substrate, and 5 nM of ASK1 kinase are incubated with kinase reaction buffer containing 50 mM HEPES pH 7.5, 0.01% BRIJ-35, 10 mM MgCl2, and 1 mM EGTA for 30 minutes. 100 uM ATP is added to start kinase reaction and incubated for 3 hours. The STK3-antibody labeled with Eu3+-Cryptate and 125 nM streptavidin-XL665 are mixed in a single addition with stop reagents provided by the Cisbio kit used to stop the kinase reaction. Fluorescence is detected using an Envision Multilabeled 2014 reader from PerkinElmer. The Fluorescence is measured at 615 nm (Cryptate) and 665 nm (XL665) and a ratio of 665 nm/615 nm is calculated for each well. The resulting TR-FRET is proportional to the phosphorylation level. Staurosporine was used as the positive control.

Consider `Cc1cc(F)c(C(=O)Nc2cccc(-n3cnnc3)n2)cc1-n1cnc(C2CC2)c1`, for which the IC50 (usually the concentration at which inhibition is half-maximal) was over 1000 nM.
